Measurements taken from patent US6071919A, “Zwitterionic compositions and methods as biological response modifiers” (priority 1998, dated 2000).
Entries after “also recorded” stand apart in the source; their conditions may differ.

What was measured:
[1] = tested on: alkaline phosphatase; assay: Decrease of alkaline phosphatase in mammals; type: in vivo
Text: It is discovered that zwitterionic compounds, such as HEPES, decrease the production of alkaline phosphatase in mammals.

[2] = tested on: serum alkaline phosphatase; assay: Example Six: serum alkaline phosphatase in healthy canines; type: in vivo, canine; conditions: up to 500 mg/kg, five canines
Method: Five healthy canines were administered up to 500 mg/kg of HEPES.

[3] = tested on: cancer; assay: Treatment of cancer patients with HEPES alone; type: in vivo, human; conditions: 300 mg/kg to 1000 mg/kg daily
[4] = Treatment of rheumatoid arthritis patients with HEPES alone; type: in vivo, human; conditions: 300 mg/kg to 1000 mg/kg daily
Method: To date, more than twenty-five patients have been treated with 300 mg/kg to 1000 mg/kg HEPES daily (no other agents or additional compositions).

[5] = tested on: bone marrow / extramedullary hematopoiesis; assay: Example Seven: bone marrow and liver biopsy in healthy beagle dogs; type: in vivo; conditions: 18 mg/kg i.v. one week, then 40 mg/kg one week
Method: Five healthy beagle dogs (males and females) were given 18 mg/kg intravenously of zwitterionic piperazine compound (HEPES) for one week. The dose was increased to 40 mg/kg for one week. […] This is also consistent with immune stimulating effect.

[6] = Example Eight: patient with organophosphate induced polyneuropathy; type: in vivo, human
Method: A person with organophosphate induced polyneuropathy (such as found in Agent Orange toxicity and/or Gulf War Syndrome) had significant numbness in both legs, decreased sensation in both hands, and decreased proprioception was given 8 mg/kg orally of zwitterionic piperazine (HEPES) for two weeks.

[7] = tested on: HIV; assay: Example Ten: patient with HIV infection and HIV associated polyneuropathy; type: in vivo; conditions: 5000 mg i.v. daily, after thirty days
Method: A person with documented HIV infection had HIV associated polyneuropathy. They could not raise their legs without assistance. They were given 5000 mg intravenously of zwitterionic piperazine (HEPES) daily for thirty days. […] Their cluster determinates had risen and sensation and proprioception were improved.

[8] = tested on: hepatitis B; assay: Example Eleven: patient with chronic hepatitis B infection; type: in vivo, human; conditions: 5000 mg i.v., after thirty days
Text: After thirty days, their bilirubin fell to 3.0 and other liver enzymes were reduced by 25 percent or more.

[9] = tested on: beta-hemolytic streptococci; assay: Example Twelve: MIC of antibiotics with and without HEPES, streptococci; type: cell-based; conditions: agar gel cultures, colony counts of 10^6, with vs without HEPES
Method: Routine agar gel cultures are inoculated with beta-hemolytic streptococci and gram […] staphylococci. The cultures were raised to colony counts of 10^6. The mean inhibitory concentration (MIC) with susceptible antibiotics was measured with and without the presence of zwitterionic piperazine (HEPES).

[10] = Antibiotic efficacy in vivo
[11] = Example Fifteen: patient with seizure disorder, EEG; type: in vivo, human; conditions: 5000 mg orally (2500 mg twice a day), two weeks
Method: A person with a longstanding history of seizure disorder was poorly controlled and had recurrent seizures while taking Dilantin and phenobarbital. They started on 5000 mg zwitterionic piperazine orally (2500 mg twice a day) for two weeks. […] The zwitterionic piperazine (HEPES) has membrane stabilizing properties, is effective for anti-arrhythmic therapy, and is effective anti-seizure therapy.

[12] = tested on: acute hymphocytic leukemia (ALL); assay: Example Sixteen: patient with acute lymphocytic leukemia in blast crisis; type: in vivo, human; conditions: for Hemoglobin (Hgb): pre-infusion 10.5; for Blasts: pre-infusion 45%; for Platelets: pre-infusion 31,000; for White Blood Cells (WBC): pre-infusion 38,000
Text: A person presented with acute hymphocytic leukemia (ALL).
They were started on zwitterionic piperazine therapy (HEPES).
Her baseline laboratory data was obtained following a blood transfusion before starting the HEPES;

[13] = Observations in HEPES-treated dogs; type: in vivo
[14] = tested on: giant platelets and histiocytes; assay: Giant platelets and histiocytes on peripheral smear; type: in vivo, animals; conditions: blood / peripheral smear
Text: The amphoteric zwitterion compounds may be employed as active ingredients with other active ingredients, as well as other components and carriers typically used in pharmaceutical compositions; such as, but not limited to: buffers, stabilizers, dyes, antioxidants, dispersing agents, fillers, surfactants, silicones, bulking agents, pigments, salts, human or animal (natural or synthetic) cells and cellular components, antibiotics, drugs, vitamins, amino acids, proteins, serum and various other compounds and combinations thereof in varying amounts.

[15] = tested on: bone marrow / extramedullary hematopoiesis; assay: Bone marrow and extramedullary hematopoiesis, in vivo tests; parameters: species or system dogs and humans
Method: Further, the zwitterionic compounds reduce the mean inhibitory concentration (MIC) of susceptible […] in culture (in vitro) and enhances antibiotic activity in vivo. The zwitterionic compound may be used alone or with a carrier, such as sterile water or a saline solution. Enhancement and inducement of extramedullary hematopoiesis has been found in amounts of HEPES administered in an amount of about 18-20 mg/kilograms or greater for e.g. 40 mg/kg of body weight in dogs with daily intravenous injections over a defined time period of 1-2 weeks.

[16] = ADA: data of Schwarzenbach et al. (1955); cited from earlier work
[17] = ADA: data of Schwarzenbach et al. (1955); cited from earlier work; remark: listed apart in the source
[18] = ADA: data of Schwarzenbach et al. (1955); cited from earlier work; remark: listed apart in the source
[19] = ADA: data of Schwarzenbach et al. (1955); cited from earlier work; remark: listed apart in the source
[20] = change of pKa per ° C.; cited from earlier work
[21] = cited from earlier work
[22] = 13.0 mg/kg I.V. increased to 80 mg/kg I.V.
[23] = intravenous and oral application

O=S(=O)(O)CCN1CCN(CCO)CC1 [HEPES, N-2 Hydroxyethylpiperazine-N'-2 Ethane Sulfonic Acid]
fall of baseline alkaline phosphatase levels ([1]; in excess of 100 mg/kg to 500 mg/kg or greater): fall by a factor of two or greater
alkaline phosphatase measurability ([1]; in excess of 100 mg/kg to 500 mg/kg or greater, some cases): not measurable by standard laboratory methods
concentration at which decrease of alkaline phosphatase appears to start ([1]; mammals): approximately 12 mg/kg
serum alkaline phosphatase [2]: not detected by standard laboratory methods in all canines
decrease in tumor volume and/or tumor activity ([3]; all patients with cancer): 25%-50%
cancer pain response ([3]; all patients with cancer pain): All patients with cancer pain have responded with pain reduction
reduction in disease activity [4]: 25%-50%
circulating histiocytes and giant platelets ([5]; all animals): increase in circulating histiocytes and giant platelets
bone marrow biopsy ([5]; all dogs): the bone marrow became hypercellular
liver biopsy (extramedullary hematopoiesis) ([5]; all dogs): presence of megakaryocyte production consistent with induced extramedullary hematopoiesis
myelin integrity / organic phosphate induced polyneuropathy ([6]; 8 mg/kg orally): reversed the effect of organic phosphate induced polyneuropathy in the patient and restored myelin integrity
sensation and proprioception ([6]; 8 mg/kg orally, end of two weeks): sensation and proprioception had returned
sensation and proprioception after reinstatement ([6]; two weeks after reinstatement): sensation and proprioception were again restored
symptoms after stopping the medicine ([6]; two weeks after stop): symptoms returned in two weeks
Total viral load determined by PCR [7]: decreased
ability to raise legs [7]: could raise their legs without assistance
cluster determinates [7]: had risen
sensation and proprioception [7]: improved
reduction of other liver enzymes [8]: ≥ 25%
bilirubin level ([8]; baseline 5.0): 3.0
decrease in MIC of each antibiotic in culture (in vitro) [9]: more than 10%
antibiotic efficacy in vivo [10]: enhanced the antibiotic efficacy in vivo
EEG focal activity [11]: significantly decreased focal activity
blast crisis [12, 22]: cessation of the blasts crisis
platelet destruction [12, 22]: Platelet destruction has ceased
Hemoglobin (Hgb) ([12]; Day 3 of HEPES treatment): 8.5 g/dL
Blasts ([12]; Day 3 of HEPES treatment): 45%
Platelets ([12]; Day 3 of HEPES treatment): 14,000
White Blood Cells (WBC) ([12]; Day 3 of HEPES treatment): 53,000
Hemoglobin (Hgb) ([12]; Day 7 of HEPES treatment): 11.6 g/dL
Blasts ([12]; Day 7 of HEPES treatment): 5.0%
Platelets ([12]; Day 7 of HEPES treatment): 17,000
White Blood Cells (WBC) ([12]; Day 7 of HEPES treatment): 6,300
behaviour following injections ([13]; all dogs): all dogs became calm following injections
hematomas at the injection sites ([13]; all treated dogs): rapid resolution of hematomas at the injection sites
diuresis ([13]; certain dosages): marked diuresis at certain dosages
vascular integrity ([13]; treated groups): strong evidence of improved vascular integrity
respiratory infections ([13]; while being treated, many in untreated group did): no animals in the treated group had any respiratory infections while being treated
giant platelets and histiocytes [14]: production of giant platelets and histiocytes; also recorded: produces giant platelets and histiocytes in blood
minimal effective dose ([15]; Canis lupus familiaris, iv, dogs, daily i.v., 1-2 weeks, "or greater", read-out: amount of HEPES giving enhancement and inducement of extramedullary hematopoiesis): 18 to 20 mg/kg
extramedullary hematopoiesis [15, 23]: induce extramedullary hematopoiesis in patients
hypercellular bone marrow [15, 23]: induce hypercellular bone marrow
Metal-Buffer Binding Constants Log KM, Mg^2+ [16]: Negl
Metal-Buffer Binding Constants Log KM, Ca^2+ [17]: Negl
Metal-Buffer Binding Constants Log KM, Mn^2+ [18]: Negl
Metal-Buffer Binding Constants Log KM, Cu^2+ [19]: Negl
αpKa /° C. [20]: -0.014
Saturated Solution at 0° [21]: 2.25 M
